Like-named read-outs stand apart in the source and are kept apart here.
Tests used:
[1] = cited from earlier work; for Cmax: human, in vivo; for Protein binding: plasma protein binding, reported
[2] = test system: CD19 CAR T cells; experiment: CAR T cell cytokine production (Luminex) under CD19 K562, KIP-1 or CD2/3/28 stimulation; conditions: 72 h; for IC50: Homo sapiens, T-cell
[3] = test system: CAR-T cells; experiment: CAR-T cell expansion assay (KIP-1 or CD3/CD28 stimulation); conditions: for % viability: CD3/CD28; for % viabili.: CD3/CD28 stimulation; for % viabi.: KIP-1 stimulation

## C[C@@H]1C[C@H]2[C@@H]3CCC4=CC(=O)C=C[C@]4(C)[C@@]3(F)[C@@H](O)C[C@]2(C)[C@@]1(O)C(=O)CO [dexamethasone]
[1]
  Cmax: 115 ng/mL
  Protein binding: 77%
[2]; CD3/CD28 stimulation
  Suppression of cytokine production, MCP-1, % inh.: >80% inh.
  Suppression of cytokine production, TNFa, % inh.: >50% inh.
[2]; read-out: Suppression of cytokine production, GMCSF (IC50), CD3/CD28 stimulation, 72 h
  IC50: > 10 µM
[2]; read-out: Suppression of cytokine production, GMCSF (IC50), K562-CD19 stimulation, 72 h
  IC50: > 10 µM
[2]; read-out: Suppression of cytokine production, GzB (IC50), CD3/CD28 stimulation, 72 h
  IC50: > 10 µM
[2]; read-out: Suppression of cytokine production, GzB (IC50), K562-CD19 stimulation, 72 h
  IC50: > 10 µM
[2]; read-out: Suppression of cytokine production, GzB (IC50), KIP-1 stimulation, 72 h
  IC50: > 10 µM
[2]; read-out: Suppression of cytokine production, IFNg (IC50), CD3/CD28 stimulation, 72 h
  IC50: > 10 µM
[2]; read-out: Suppression of cytokine production, IFNg (IC50), K562-CD19 stimulation, 72 h
  IC50: > 10 µM
[2]; read-out: Suppression of cytokine production, IFNg (IC50), KIP-1 stimulation, 72 h
  IC50: > 10 µM
[2]; read-out: Suppression of cytokine production, IL-2Ra (IC50), CD3/CD28 stimulation, 72 h
  IC50: > 10 µM
[2]; read-out: Suppression of cytokine production, IL-2Ra (IC50), K562-CD19 stimulation, 72 h
  IC50: > 10 µM
[2]; read-out: Suppression of cytokine production, IL-8 (IC50), CD3/CD28 stimulation, 72 h
  IC50: > 10 µM
[2]; read-out: Suppression of cytokine production, IL-8 (IC50), K562-CD19 stimulation, 72 h
  IC50: > 10 µM
[2]; read-out: Suppression of cytokine production, IL-10 (IC50), CD3/CD28 stimulation, 72 h
  IC50: > 10 µM
[2]; read-out: Suppression of cytokine production, MIG (IC50), CD3/CD28 stimulation, 72 h
  IC50: > 10 µM
[2]; read-out: Suppression of cytokine production, MIP-1a (IC50), CD3/CD28 stimulation, 72 h
  IC50: > 10 µM
[2]; read-out: Suppression of cytokine production, MIP-1a (IC50), K562-CD19 stimulation, 72 h
  IC50: > 10 µM
[2]; read-out: Suppression of cytokine production, MIP-1a (IC50), KIP-1 stimulation, 72 h
  IC50: > 10 µM
[2]; read-out: Suppression of cytokine production, MIP-1b (IC50), CD3/CD28 stimulation, 72 h
  IC50: > 10 µM
[2]; read-out: Suppression of cytokine production, MIP-1b (IC50), K562-CD19 stimulation, 72 h
  IC50: > 10 µM
[2]; read-out: Suppression of cytokine production, MIP-1b (IC50), KIP-1 stimulation, 72 h
  IC50: > 10 µM
[2]; read-out: Suppression of cytokine production, Perforin (IC50), CD3/CD28 stimulation, 72 h
  IC50: > 10 µM
[2]; read-out: Suppression of cytokine production, Perforin (IC50), K562-CD19 stimulation, 72 h
  IC50: > 10 µM
[2]; read-out: Suppression of cytokine production, Perforin (IC50), KIP-1 stimulation, 72 h
  IC50: > 10 µM
[2]; KIP-1 stimulation
  Suppression of cytokine production, IL-6, % inh.: 66% inh.
  Suppression of cytokine production, IL-10, % inh.: 50% inh.
  Suppression of cytokine production, MCP-1, % inh.: 66% inh.
  Suppression of cytokine production, MIG, % inh.: 50% inh.
  Suppression of cytokine production, TNFa, % inh.: 75% inh.
[3]; dose 50 nM, day 4
  % viability: 45.9%
[3]; dose 50 nM, day 8
  % viability: 44.4%
[3]; dose 50 nM, day 12
  % viability: 74.7%
[3]; dose 100 nM, day 4
  % viability: 53.4%
[3]; dose 100 nM, day 8
  % viability: 51.3%
[3]; dose 100 nM, day 12
  % viability: 66.3%

## C[C@@H]1CCN(C(=O)CC#N)C[C@@H]1N(C)c1ncnc2[nH]ccc12 [tofacitinib]
[1]
  Cmax: 58 ng/mL
  Protein binding: 40%
[2]; K562-CD19 stimulation
  Suppression of cytokine production, IFNg (IC50): Suppress
  Suppression of cytokine production, IL-6 (IC50): Suppress
[3]; 10 nM, Day 0
  % viabili.: 84%
  % viabi.: 84%
[3]; 10 nM, Day 4
  % viabili.: 70.8%
  % viabi.: 77.9%
[3]; 10 nM, Day 8
  % viabili.: 80.9%
  % viabi.: 61.2%
[3]; 10 nM, Day 12
  % viabili.: 82.9%
  % viabi.: 85.2%
[3]; 20 nM, Day 0
  % viabili.: 84%
  % viabi.: 84%
[3]; 20 nM, Day 4
  % viabili.: 81.1%
  % viabi.: 84.7%
[3]; 20 nM, Day 8
  % viabili.: 70.1%
  % viabi.: 64.9%
[3]; 20 nM, Day 12
  % viabili.: 79.5%
  % viabi.: 79.3%
[3]; 40 nM, Day 0
  % viabili.: 84%
  % viabi.: 84%
[3]; 40 nM, Day 4
  % viabili.: 89.2%
  % viabi.: 84.3%
[3]; 40 nM, Day 8
  % viabili.: 73.5%
  % viabi.: 77.5%
[3]; 40 nM, Day 12
  % viabili.: 74.8%
  % viabi.: 76%
[3]; 60 nM, Day 0
  % viabili.: 84%
  % viabi.: 84%
[3]; 60 nM, Day 4
  % viabili.: 93.1%
  % viabi.: 82.3%
[3]; 60 nM, Day 8
  % viabili.: 86.6%
  % viabi.: 70.2%
[3]; 60 nM, Day 12
  % viabili.: 74.5%
  % viabi.: 76.1%
[3]; 80 nM, Day 0
  % viabili.: 84%
  % viabi.: 84%
[3]; 80 nM, Day 4
  % viabili.: 91.7%
  % viabi.: 81.8%
[3]; 80 nM, Day 8
  % viabili.: 86.3%
  % viabi.: 69.7%
[3]; 80 nM, Day 12
  % viabili.: 77%
  % viabi.: 73.4%
[3]; 100 nM, Day 0
  % viabili.: 84%
  % viabi.: 84%
[3]; 100 nM, Day 4
  % viabili.: 94.3%
  % viabi.: 73.2%
[3]; 100 nM, Day 8
  % viabili.: 85.5%
  % viabi.: 72.7%
[3]; 100 nM, Day 12
  % viabili.: 73.9%
  % viabi.: 79.4%
[3]; at the doses tested (Table 40)
  effect on T cell expansion: moderate effects
[3]; compared with upadacitinib and baricitinib
  impacts on expansion in further dose titrations: less severe in comparison

From patent US12252701B2, “Chimeric antigen receptor T cell therapy” (KITE PHARMA, INC., priority 2020, dated 2025)
